Earlier results, collected in US20170020882A1, “ANTIVIRAL FORMULATION” (MEDA PHARMA SARL, priority 2008, published 2017).

Assays:
[1] = human, in vivo
[2] = test system: cold sore lesions; details: human, in vivo

Row | Compound | frequency of aborted lesions [1] [%] | reduction in healing time [2] [days] | reduction of time to loss of pain [2] [days]
1 | CC(=O)OCC(CCn1cnc2cnc(N)nc21)COC(C)=O [famciclovir] | 8 |  | 
2 | Nc1nc2c(ncn2CCC(CO)CO)c(=O)[nH]1 [penciclovir] |  | 0.7 | 0.6
